Test system: tumor cells A549
Test: MTS proliferation test of tumor cells A549
Type: cell-based
Conditions: A549, 0-3.2 μM, 1.5 h exposure, then 48 h culture
Method: Plating the cultured tumor cells A549 in 96-well cell culture plates (100 μL, 5×10^4 cell/well), adding pure Adriamycin or samples with predetermined concentrations (0, 0.1 μM, 0.2 μM, 0.4 μM, 0.8 μM, 1.6 μM, 3.2 μM) into the wells respectively, culturing in a cell incubator for 1.5 h, centrifuging, removing the cell culture medium in the supernatant, adding fresh culture medium to continue culturing for 48 h, then testing the proliferation rate of the cells using a MTS reagent.

In the case of COc1cccc2c1C(=O)c1c(O)c3c(c(O)c1C2=O)C[C@@](O)(C(=O)CO)C[C@@H]3O[C@H]1C[C@H](N)[C@H](O)[C@H](C)O1 [Adriamycin], the “inhibitory effect against tumor cells as the concentration increases (proliferation rate, MTS)” value is reported as “increases gradually”.

— US10563205B2, “Nucleic acid aptamer AS1411 modified DNA tetrahedron and preparation method thereof” (Sichuan University, priority 2016, dated 2020)
